# Patent US9180132B2, “Antimicrobial cationic steroids and methods of use” (The Trustees of the University of Pennsylvania, priority 2010, dated 2015)
# Columns and labels:
# [1] = test system: Bovine aortic endothelial cells (BAEC); assay: Lipofection of BAEC with EGFP plasmid; format: cell-based; details: unconjugated, alone
# Method: Bovine aortic endothelial cells (BAEC, passage 4-13) were passaged at a 1:3 split to 24-well culture plates, and then grown to dense confluence before lipofection. Growth medium was Dulbecco's modified Eagle's medium (DMEM) containing 10% heat inactivated charcoal-filtered (to remove steroid hormones) fetal calf serum (Hyclone), 0.30 mg/ml glutamine, 150 U/ml penicillin, and 0.15 mg/ml streptomycin (Gibco). […] The plasmids pEGFP-N3 and pGRE-SEAP (Clontech) were used for expression of EGFP or secreted alkaline phosphatase under the regulation of CMV or GRE promoters, respectively. […]
# For lipofection, a solution of DS/DOPE in 125 μl OptiMEM I (Gibco) was mixed with a solution of DNA in 125 μl OptiMEM I, incubated for 30 to 60 minutes, and then overlaid on BAEC cells for 2 hours, followed by PBS rinse and addition of growth media. Fluorescence was measured after 48 hours. […] EGFP expression of transfections was monitored in duplicate (FIG. 2A) or triplicate (FIG. 2B) with a fluorescent plate reader (Labsystems Fluoroskan Ascent; 485 nm/538 nm filter pair) with background subtraction using the autofluorescence of non-transfected BAEC. […] Supernatant was collected, and pooled with supernatant from PBS washed and pelleted cells (total volume 750 μl), and EGFP fluorescence was measured (Ex 485, Em 515; SLM fluorometer). […]
# GFP-GR = GFP-GR translocation study in BAECs; format: cell-based; details: 0.01-1 μM, 60-minute treatment
# Method: BAECs were seeded at 1×10^5/ml in 24 well plates and allowed to spread overnight. Cells were transfected with GFP-GR chimeric protein by adding 450 ng of DNA complexed with 2 ul of lipofectamine in a 200 ul volume of Optimem media growth to each well of a 24 well plate for ˜1.5 hour. The DNA-lipofectamine complex was then removed and cells placed in DMEM supplemented with 0.5% calf serum. This reduced level of calf serum was used to prevent non-specific translocation of GFP-GR receptor in response to hormones in the serum. […] Analysis of GFP-GR translocation was conducted by counting the number of cells in each field of view, which had GFP-GR nuclear localization compared to total number of cells. ˜40 cells were analyzed per condition.
# Water solubility = format: physicochemical
# Description: The 21-hydroxy group of dexamethasone is not required for anti-inflammatory activity, and therefore is an ideal choice for conjugation to a polycation (FIG. 1A) (Schimmer et al., 1996, in The Pharmacological Basis of Therapeutics, 1459-1485, eds. Hardman and Limbird, McGraw-Hill, New York). […] Traut's reagent is selectively ring-opened by the primary amines (Hermanson, 1996, Bioconjugate Techniques, Academic Press) on spermine, forming a hydrolytically sensitive amidimide bond (Hermanson, 1996, Bioconjugate Techniques, Academic Press) between spermine and iminothiolane and a reactive thiolate anion that reacts with the α-keto mesylate on the 21 position of dexamethasone mesylate (Simmons et al., 1980, J. Org. Chem. […]), yielding an α-keto thioether linkage between the dexamethasone and iminothiolane. Dexamethasone mesylate (prepared or received from Steraloids, N.H.) or dexamethasone (Steraloids, N.H.), 2-iminothiolane (Traut's reagent) (Pierce), spermine (Sigma), and ethanol or DMSO (Aldrich) were used as received. […] For DA, FIG. 1B: Calc: C, 63.26; H, 7.35; N, 2.84. Found: C, 63.44; H, 7.27; N, 2.83.
Molecule,gene transfer activity (EGFP expression) [1],nuclear localization (translocation) of GFP-GR (GFP-GR),solubility (Water solubility) [mg/mL]
"NCCCNCCCCNCCCN [Spermine, spermine]",no detectable gene transfer activity,,
"LL-37: cathelicidin peptide LL37, naturally occurring antibacterial agent (LLGDFFRKSKEKIGKEFKRIVQRIKDFLRNLVPRTES; Antibacterial peptide LL-37; UniProt P49913 134-170, looked up)",,not observed,
CCCCCCCCNCCC[C@@H](C)[C@H]1CC[C@H]2[C@@H]3[C@H](OCCCN)C[C@@H]4C[C@H](OCCCN)CC[C@]4(C)[C@H]3C[C@H](OCCCN)[C@]12C [CSA-13],,not observed,
"CC1C[C@H]2[C@@H]3CCC4=CC(=O)C=C[C@]4(C)[C@@]3(F)C(O)C[C@]2(C)[C@@]1(O)C(=O)CSCCCC(=N)NCCCNCCCCNCCCN (some centres unmarked) [DS, N-[3-({4-[(3-aminopropyl)amino]butyl}amino)propyl]-4-[(9-fluoro-11,17-dihydroxy-16-methyl-3,20-dioxopregna-1,4-dien-21-yl)sulfanyl]butanimidamide]",,caused nuclear localization of GFP-GR,> 100
